Assays:
[1] = molecular target: T1, Serine/threonine-protein kinase D2 (Homo sapiens) (UniProt Q9BZL6); experiment: PRKD2 (PKD2) Kinase screen; details: Compound concentration 1.0 uM
T1 sequence (whole entry): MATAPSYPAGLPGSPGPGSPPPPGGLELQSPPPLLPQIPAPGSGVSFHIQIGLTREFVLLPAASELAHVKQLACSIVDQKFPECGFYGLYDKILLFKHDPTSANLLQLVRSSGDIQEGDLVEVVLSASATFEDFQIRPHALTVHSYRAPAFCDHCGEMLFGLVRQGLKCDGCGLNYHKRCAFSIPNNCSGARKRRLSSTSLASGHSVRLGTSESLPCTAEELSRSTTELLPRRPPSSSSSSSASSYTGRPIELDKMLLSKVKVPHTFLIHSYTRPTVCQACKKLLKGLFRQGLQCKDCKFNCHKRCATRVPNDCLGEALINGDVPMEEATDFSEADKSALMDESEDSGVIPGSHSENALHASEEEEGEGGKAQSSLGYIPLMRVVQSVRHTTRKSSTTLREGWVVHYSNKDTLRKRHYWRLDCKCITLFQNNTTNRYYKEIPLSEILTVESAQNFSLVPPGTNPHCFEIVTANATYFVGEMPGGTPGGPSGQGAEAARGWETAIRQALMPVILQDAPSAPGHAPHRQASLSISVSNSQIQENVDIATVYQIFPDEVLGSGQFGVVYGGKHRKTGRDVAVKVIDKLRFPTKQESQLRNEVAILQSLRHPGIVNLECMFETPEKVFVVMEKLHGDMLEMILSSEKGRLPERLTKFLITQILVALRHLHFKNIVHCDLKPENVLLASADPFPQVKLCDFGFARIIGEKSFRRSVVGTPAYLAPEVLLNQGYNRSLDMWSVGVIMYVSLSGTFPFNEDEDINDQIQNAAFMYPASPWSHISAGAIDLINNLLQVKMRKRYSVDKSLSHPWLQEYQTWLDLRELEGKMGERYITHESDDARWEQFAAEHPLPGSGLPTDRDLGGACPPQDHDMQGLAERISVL

[2] = molecular target: Fibroblast growth factor receptor 4 (Homo sapiens) (UniProt P22455); experiment: FGFR4 Kinase screen; details: Compound concentration 1.0 uM
[3] = molecular target: Tyrosine-protein kinase ABL1 (Homo sapiens) (UniProt P00519); experiment: ABL1 Kinase screen; details: Compound concentration 1.0 uM
[4] = molecular target: MAP/microtubule affinity-regulating kinase 3 (Homo sapiens) (UniProt P27448); experiment: Protein Serine/Threonine Kinase, MARK3 Eurofins-Panlabs enzyme assay; details: Compound concentration 10.0 uM
[5] = system: Tyrosine-protein kinase JAK2 (Homo sapiens), O60674 [V617F]; experiment: JAK2 JH1 JH2 V617F Kinase screen; details: Compound concentration 1.0 uM
[6] = molecular target: Melanocortin receptor 5 (Homo sapiens) (UniProt P33032); experiment: Inhibition of Melanocortin MC5 at 10 µM in the Eurofins-Panlabs radioligand binding assay (Eurofins_assay_251400); set-up: ligand concentration 0.035 nM; details: Compound concentration 10.0 uM
[7] = PRKCB2 (PKC beta II) Kinase screen; details: Compound concentration 1.0 uM
[8] = molecular target: Serine/threonine-protein kinase PAK 6 (Homo sapiens) (UniProt Q9NQU5); experiment: PAK6 Kinase screen; details: Compound concentration 1.0 uM
[9] = molecular target: Serine/threonine-protein kinase PAK 4 (Homo sapiens) (UniProt O96013); experiment: PAK4 Kinase screen; details: Compound concentration 1.0 uM
[10] = molecular target: T2, 5-hydroxytryptamine receptor 3A (Homo sapiens) (UniProt P46098); experiment: Inhibition of Serotonin (5-Hydroxytryptamine) 5-HT3 at 10 µM in the Eurofins-Panlabs radioligand binding assay (Eurofins_assay_271910); set-up: ligand concentration 0.69 nM; details: Compound concentration 10.0 uM
T2 sequence (whole entry): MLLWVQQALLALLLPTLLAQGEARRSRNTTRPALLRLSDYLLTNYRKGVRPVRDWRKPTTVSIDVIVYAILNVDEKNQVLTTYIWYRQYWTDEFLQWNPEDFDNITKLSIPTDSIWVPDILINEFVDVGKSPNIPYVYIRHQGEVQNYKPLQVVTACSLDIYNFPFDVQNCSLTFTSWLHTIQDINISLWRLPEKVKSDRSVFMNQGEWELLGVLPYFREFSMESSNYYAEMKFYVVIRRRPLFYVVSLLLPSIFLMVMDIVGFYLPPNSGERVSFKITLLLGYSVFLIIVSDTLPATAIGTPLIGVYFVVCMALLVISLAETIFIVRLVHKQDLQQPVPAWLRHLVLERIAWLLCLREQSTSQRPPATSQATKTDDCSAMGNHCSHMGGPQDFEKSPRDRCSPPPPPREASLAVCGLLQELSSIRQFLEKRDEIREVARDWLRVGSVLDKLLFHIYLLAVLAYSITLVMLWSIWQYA

[11] = molecular target: Rho-associated protein kinase 2 (Homo sapiens) (UniProt O75116); experiment: ROCK2 Kinase screen; details: Compound concentration 1.0 uM
[12] = molecular target: Serine/threonine-protein kinase PLK1 (Homo sapiens) (UniProt P53350); experiment: PLK1 Kinase screen; details: Compound concentration 1.0 uM
[13] = molecular target: Dual specificity protein kinase CLK3 (Homo sapiens) (UniProt P49761); experiment: CLK3 Kinase screen; details: Compound concentration 1.0 uM
[14] = molecular target: Vascular endothelial growth factor receptor 2 (Homo sapiens) (UniProt P35968); experiment: KDR (VEGFR2) Kinase screen; details: Compound concentration 1.0 uM
[15] = molecular target: Protein kinase C theta type (Homo sapiens) (UniProt Q04759); experiment: PRKCQ (PKC theta) Kinase screen; details: Compound concentration 1.0 uM
[16] = molecular target: Mitogen-activated protein kinase kinase kinase 9 (Homo sapiens) (UniProt P80192); experiment: MAP3K9 (MLK1) Kinase screen; details: Compound concentration 1.0 uM
[17] = molecular target: T3, Mitogen-activated protein kinase kinase kinase 2 (Homo sapiens) (UniProt Q9Y2U5); experiment: MAP3K2 (MEKK2) Kinase screen; details: Compound concentration 1.0 uM
T3 sequence (whole entry): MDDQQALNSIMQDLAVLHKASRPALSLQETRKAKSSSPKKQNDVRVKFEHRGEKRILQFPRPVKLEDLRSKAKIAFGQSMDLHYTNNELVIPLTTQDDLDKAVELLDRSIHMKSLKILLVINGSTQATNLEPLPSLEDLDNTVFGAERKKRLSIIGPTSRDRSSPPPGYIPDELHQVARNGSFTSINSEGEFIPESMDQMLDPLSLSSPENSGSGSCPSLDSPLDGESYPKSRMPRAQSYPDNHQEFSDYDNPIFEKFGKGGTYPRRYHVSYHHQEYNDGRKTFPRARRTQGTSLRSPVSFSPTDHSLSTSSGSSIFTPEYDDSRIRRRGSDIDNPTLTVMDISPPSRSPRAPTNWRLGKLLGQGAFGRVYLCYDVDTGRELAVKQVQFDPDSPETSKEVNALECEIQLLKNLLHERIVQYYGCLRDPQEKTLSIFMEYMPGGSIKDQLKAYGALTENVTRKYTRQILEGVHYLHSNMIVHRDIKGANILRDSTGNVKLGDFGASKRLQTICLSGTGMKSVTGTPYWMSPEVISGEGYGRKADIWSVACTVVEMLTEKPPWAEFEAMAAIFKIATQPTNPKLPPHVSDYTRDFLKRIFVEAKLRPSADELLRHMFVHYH

[18] = molecular target: MAP/microtubule affinity-regulating kinase 3 (Homo sapiens) (UniProt P27448); experiment: MARK3 Kinase screen; details: Compound concentration 1.0 uM
[19] = molecular target: Nociceptin receptor (Homo sapiens) (UniProt P41146); experiment: Orphanin ORL1 Eurofins-Panlabs radioligand binding assay; details: Compound concentration 10.0 uM
[20] = molecular target: Histamine H3 receptor (Homo sapiens) (UniProt Q9Y5N1); details: Compound concentration 10.0 uM

Measured: inhibition

MAP/microtubule affinity-regulating kinase 3 (Homo sapiens), sequence (P27448 whole entry, looked up): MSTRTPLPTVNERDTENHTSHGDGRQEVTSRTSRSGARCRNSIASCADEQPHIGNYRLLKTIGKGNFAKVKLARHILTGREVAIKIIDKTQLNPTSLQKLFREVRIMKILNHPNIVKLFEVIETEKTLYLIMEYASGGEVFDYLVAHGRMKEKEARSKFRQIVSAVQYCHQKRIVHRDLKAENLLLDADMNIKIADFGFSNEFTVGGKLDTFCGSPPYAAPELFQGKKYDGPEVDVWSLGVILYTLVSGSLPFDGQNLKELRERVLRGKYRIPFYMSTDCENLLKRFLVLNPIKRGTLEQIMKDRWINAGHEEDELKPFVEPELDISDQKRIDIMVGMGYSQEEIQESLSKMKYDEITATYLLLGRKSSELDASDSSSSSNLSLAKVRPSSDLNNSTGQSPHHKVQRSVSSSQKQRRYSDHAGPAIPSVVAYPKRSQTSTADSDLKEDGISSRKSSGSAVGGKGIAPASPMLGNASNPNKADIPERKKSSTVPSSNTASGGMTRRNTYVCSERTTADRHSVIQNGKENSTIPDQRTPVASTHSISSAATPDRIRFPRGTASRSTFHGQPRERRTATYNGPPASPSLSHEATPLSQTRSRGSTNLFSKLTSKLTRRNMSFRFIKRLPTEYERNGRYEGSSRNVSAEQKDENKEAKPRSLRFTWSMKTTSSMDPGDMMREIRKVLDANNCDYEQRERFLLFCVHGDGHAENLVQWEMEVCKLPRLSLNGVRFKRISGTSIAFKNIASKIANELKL
Serine/threonine-protein kinase PAK 4 (Homo sapiens), sequence (O96013 whole entry, looked up): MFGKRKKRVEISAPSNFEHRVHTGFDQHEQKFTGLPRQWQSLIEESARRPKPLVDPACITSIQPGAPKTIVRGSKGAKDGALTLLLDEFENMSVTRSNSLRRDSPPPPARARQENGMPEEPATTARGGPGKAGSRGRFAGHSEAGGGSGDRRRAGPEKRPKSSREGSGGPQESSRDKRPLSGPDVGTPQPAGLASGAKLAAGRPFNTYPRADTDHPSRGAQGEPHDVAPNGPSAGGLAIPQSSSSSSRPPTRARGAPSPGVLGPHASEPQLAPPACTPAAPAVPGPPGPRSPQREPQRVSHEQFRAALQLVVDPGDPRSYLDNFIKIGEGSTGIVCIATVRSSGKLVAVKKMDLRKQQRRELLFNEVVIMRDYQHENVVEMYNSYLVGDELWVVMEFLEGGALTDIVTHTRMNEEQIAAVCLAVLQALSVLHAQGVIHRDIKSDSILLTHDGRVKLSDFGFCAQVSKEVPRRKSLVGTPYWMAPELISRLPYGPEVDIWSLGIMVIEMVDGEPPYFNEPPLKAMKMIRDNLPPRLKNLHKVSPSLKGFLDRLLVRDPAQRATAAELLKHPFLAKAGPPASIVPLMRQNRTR
Melanocortin receptor 5 (Homo sapiens), sequence (P33032 whole entry): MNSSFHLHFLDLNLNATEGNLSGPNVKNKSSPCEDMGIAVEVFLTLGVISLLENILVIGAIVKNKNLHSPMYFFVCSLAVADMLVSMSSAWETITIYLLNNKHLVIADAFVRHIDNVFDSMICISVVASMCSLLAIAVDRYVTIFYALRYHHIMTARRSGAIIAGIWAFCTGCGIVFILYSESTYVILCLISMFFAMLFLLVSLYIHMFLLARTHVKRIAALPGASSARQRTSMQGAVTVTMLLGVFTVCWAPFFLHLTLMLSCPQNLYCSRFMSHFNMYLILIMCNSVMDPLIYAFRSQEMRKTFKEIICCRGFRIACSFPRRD
Dual specificity protein kinase CLK3 (Homo sapiens), sequence (P49761 whole entry, looked up): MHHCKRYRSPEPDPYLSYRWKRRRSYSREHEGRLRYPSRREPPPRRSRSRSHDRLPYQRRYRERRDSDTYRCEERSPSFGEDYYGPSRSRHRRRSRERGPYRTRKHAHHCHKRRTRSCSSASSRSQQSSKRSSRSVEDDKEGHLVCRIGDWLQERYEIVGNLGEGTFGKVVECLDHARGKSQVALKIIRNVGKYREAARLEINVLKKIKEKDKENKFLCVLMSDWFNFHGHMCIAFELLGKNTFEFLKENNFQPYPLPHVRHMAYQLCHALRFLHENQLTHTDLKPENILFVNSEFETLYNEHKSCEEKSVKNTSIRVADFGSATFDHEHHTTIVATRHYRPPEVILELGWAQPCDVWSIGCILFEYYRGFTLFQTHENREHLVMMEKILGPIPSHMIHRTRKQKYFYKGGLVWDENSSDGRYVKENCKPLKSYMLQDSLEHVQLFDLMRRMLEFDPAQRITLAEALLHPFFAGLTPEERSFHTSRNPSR
Protein kinase C theta type (Homo sapiens), sequence (Q04759 whole entry, looked up): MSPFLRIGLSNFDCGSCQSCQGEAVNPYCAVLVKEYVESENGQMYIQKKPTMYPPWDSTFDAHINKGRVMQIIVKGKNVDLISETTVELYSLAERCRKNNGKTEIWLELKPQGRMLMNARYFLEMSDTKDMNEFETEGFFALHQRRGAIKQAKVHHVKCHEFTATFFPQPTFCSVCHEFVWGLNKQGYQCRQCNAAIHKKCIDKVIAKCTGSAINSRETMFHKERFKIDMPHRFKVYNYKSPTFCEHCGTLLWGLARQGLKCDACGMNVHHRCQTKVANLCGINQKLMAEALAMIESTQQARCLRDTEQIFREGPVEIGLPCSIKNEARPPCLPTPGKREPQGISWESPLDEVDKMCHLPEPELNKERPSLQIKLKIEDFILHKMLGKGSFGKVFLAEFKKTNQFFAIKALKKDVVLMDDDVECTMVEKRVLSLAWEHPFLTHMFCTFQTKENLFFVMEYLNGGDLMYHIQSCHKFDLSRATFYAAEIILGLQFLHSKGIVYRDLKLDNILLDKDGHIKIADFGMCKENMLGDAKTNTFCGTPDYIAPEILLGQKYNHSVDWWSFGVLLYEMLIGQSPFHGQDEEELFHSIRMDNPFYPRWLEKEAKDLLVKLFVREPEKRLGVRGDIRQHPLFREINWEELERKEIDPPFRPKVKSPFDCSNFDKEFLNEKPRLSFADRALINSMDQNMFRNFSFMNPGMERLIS
Serine/threonine-protein kinase PLK1 (Homo sapiens), sequence (P53350 whole entry): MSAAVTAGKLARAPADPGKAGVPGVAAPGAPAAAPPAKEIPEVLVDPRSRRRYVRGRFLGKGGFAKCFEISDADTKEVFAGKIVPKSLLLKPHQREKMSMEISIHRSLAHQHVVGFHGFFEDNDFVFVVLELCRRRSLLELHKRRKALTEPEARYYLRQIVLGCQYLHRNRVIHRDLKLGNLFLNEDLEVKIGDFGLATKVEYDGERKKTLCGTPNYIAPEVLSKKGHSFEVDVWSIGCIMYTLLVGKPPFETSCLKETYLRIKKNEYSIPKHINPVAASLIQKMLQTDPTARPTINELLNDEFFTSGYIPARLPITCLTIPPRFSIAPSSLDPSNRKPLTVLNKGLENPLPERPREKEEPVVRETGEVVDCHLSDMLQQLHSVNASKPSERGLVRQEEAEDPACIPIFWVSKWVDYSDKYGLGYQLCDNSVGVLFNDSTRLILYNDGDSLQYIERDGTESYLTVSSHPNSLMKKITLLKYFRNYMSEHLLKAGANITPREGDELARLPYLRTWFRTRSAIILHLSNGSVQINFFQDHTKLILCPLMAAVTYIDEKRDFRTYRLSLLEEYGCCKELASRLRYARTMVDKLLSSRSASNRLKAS
Tyrosine-protein kinase ABL1 (Homo sapiens), sequence (P00519 whole entry): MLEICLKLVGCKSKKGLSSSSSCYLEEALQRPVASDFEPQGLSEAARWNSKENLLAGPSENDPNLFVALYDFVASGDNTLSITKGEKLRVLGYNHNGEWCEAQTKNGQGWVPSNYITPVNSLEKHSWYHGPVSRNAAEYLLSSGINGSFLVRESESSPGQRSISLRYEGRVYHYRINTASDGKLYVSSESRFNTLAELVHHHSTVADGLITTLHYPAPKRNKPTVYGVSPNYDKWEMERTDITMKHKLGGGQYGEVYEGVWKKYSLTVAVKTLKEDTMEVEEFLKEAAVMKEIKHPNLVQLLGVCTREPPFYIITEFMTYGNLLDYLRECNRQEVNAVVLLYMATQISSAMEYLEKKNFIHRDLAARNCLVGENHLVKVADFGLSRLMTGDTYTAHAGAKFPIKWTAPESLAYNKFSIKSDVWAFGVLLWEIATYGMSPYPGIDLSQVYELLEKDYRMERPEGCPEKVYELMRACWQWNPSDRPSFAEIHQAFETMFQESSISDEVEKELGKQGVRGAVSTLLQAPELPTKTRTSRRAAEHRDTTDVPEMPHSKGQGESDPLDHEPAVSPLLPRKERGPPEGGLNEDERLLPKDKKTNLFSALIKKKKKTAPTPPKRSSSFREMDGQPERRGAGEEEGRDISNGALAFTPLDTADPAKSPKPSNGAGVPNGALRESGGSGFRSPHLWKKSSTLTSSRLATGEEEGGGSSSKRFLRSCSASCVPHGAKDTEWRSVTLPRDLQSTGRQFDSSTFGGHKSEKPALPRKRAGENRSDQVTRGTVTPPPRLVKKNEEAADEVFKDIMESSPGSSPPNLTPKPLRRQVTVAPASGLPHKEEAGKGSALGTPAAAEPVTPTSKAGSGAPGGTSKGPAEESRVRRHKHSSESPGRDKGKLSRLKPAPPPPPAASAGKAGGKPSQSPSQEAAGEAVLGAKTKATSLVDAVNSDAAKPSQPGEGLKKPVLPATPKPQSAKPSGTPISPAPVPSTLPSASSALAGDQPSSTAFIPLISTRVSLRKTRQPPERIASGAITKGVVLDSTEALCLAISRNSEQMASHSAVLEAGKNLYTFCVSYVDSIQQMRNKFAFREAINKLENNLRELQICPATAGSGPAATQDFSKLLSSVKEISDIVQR
Nociceptin receptor (Homo sapiens), sequence (P41146 whole entry): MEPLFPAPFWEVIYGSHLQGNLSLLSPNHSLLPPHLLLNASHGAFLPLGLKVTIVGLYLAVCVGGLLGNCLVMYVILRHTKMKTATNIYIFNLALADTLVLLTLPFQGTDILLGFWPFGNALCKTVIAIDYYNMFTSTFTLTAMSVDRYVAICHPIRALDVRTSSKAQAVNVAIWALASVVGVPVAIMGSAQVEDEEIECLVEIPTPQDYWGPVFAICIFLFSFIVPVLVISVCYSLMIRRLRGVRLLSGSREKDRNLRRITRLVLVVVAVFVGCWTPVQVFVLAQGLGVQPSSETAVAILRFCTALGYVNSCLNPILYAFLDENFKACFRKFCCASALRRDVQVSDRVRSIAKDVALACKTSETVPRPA

C[C@@H]1CN(c2cc(-c3n[nH]c4ccc(OC5(C)CC5)cc34)ncn2)C[C@H](C)O1 [MLi-2]
inactive: [1] 19% | [2] 14.8% | [3] 1.09% | [4] 11% | [5] -7.77% | [6] -3% | [7] 10.4% | [8] 1.67% | [9] -7.34% | [10] -9% | [11] 10.2% | [12] 7.54% | [13] 8.93% | [14] 3.64% | [15] 2.46% | [16] 27.3% | [17] 7.58% | [18] 1.57% | [19] 7%

C[C@@H]1CN(c2cc(-c3nn(C)c4ccc(OC5(C)CC5)cc34)ncn2)C[C@H](C)O1 [MLi-2-NC]
inactive: [20] -6.25%
